Earlier results, collected in patent US20210319872A1, “DRUG AND DEVICE COMBINATION PRODUCTS WITH IMPROVED SAFETY AND EFFICACY PROFILES” (priority 2016, published 2021).

Settings: in vivo

Molecule: Contrave
- Amnesia: Neurologic: Amnesia (Less than 2%), Seizure (0.1%)
- Anxiety: Psychiatric: Anxiety (4.2%)
- Cholecystitis: Gastrointestinal: Cholecystitis (Less than 2%), Hematochezia (Less
- Constipation: Gastrointestinal: Constipation (19.2%), Diarrhea (7.1%), Nausea
- Depression: Psychiatric: Depression (6.3% to 7.1%), Mania, Psychiatric
- Diarrhea: Gastrointestinal: Constipation (19.2%), Diarrhea (7.1%), Nausea
- Dizziness: Neurologic: Dizziness (9.9%), Headache (17.6%), Insomnia (9.2%)
- Erythema multiforme: Dermatologic: Erythema multiforme (Rare), Stevens-Johnson
- Headache: Neurologic: Dizziness (9.9%), Headache (17.6%), Insomnia (9.2%)
- Hypertension: Cardiovascular: Hypertension (3.2%), Increased heart rate,
- Infectious disorder of kidney: Renal: Infectious disorder of kidney (Less than 2%), Serum
- Insomnia: Neurologic: Dizziness (9.9%), Headache (17.6%), Insomnia (9.2%)
- Intervertebral disc prolapse: Musculoskeletal: Intervertebral disc prolapse (Less than 2%)
- Myocardial infarction: Myocardial infarction (Less than 2%)
- Nausea: (32.5%), Vomiting (10.7%), Xerostomia (8.1%)
- Pneumonia: Respiratory: Pneumonia (Less than 2%)
- Seizure: Neurologic: Amnesia (Less than 2%), Seizure (0.1%)
- Serious side effect, Cardiovascular: Cardiovascular: Hypertension (3.2%), Increased heart rate,
- Serious side effect, Endocrine metabolic: Endocrine metabolic: Hypoglycemia
- Serious side effect, Hepatic: Hepatic: Hepatotoxicity
- Serious side effect, Immunologic: Immunologic: Anaphylaxis, Delayed hypersensitivity disorder
- Serious side effect, Ophthalmic: Ophthalmic: Angle-closure glaucoma
- Serious side effect, Psychiatric: Psychiatric: Depression (6.3% to 7.1%), Mania, Psychiatric
- Serum creatinine raised: creatinine raised (Less than 2%)
- Stevens-Johnson syndrome: syndrome (Rare)
- Suicidal thoughts: symptom, Suicidal thoughts (0.03%)
- Vomiting: (32.5%), Vomiting (10.7%), Xerostomia (8.1%)
- Xerostomia: (32.5%), Vomiting (10.7%), Xerostomia (8.1%)

Molecule: CC(C)NCC(O)COc1ccc(COCCOC(C)C)cc1 (centres unmarked) [Bisoprolol (Zebeta)]
- Diarrhea: Gastrointestinal: Diarrhea (2.6% to 3.5%)
- Fatigue: Other: Fatigue (6.6% to 8.2%)
- Headache: Neurologic: Headache (8.8% to 10.9%)
- Rhinitis: Respiratory: Rhinitis (2.9% to 4%), Upper respiratory infection
- Upper respiratory infection: (4.8% to 5%.)

Molecule: COc1ccc2c3c1O[C@H]1C(=O)CC[C@H]4[C@@H](C2)N(C)CC[C@]314.O=C(O)C(O)C(O)C(=O)O [Hysingla ER]
- Abdominal pain: Gastrointestinal: Abdominal pain (1% to less than 5%),
- Constipation: Constipation (3% to 11%), Nausea (7% to 10%), Vomiting (3% to
- Difficulty swallowing: Gastrointestinal: Difficulty swallowing (less than 1%)
- Dizziness: Neurologic: Dizziness (2% to 3%), Headache (2% to 4%),
- Fatigue: Other: Fatigue (1% to 4%)
- Headache: Neurologic: Dizziness (2% to 3%), Headache (2% to 4%),
- Hypotension: Cardiovascular: Hypotension (less than 1%), Orthostatic
- Opioid withdrawal: Opioid withdrawal (less than 1%)
- Orthostatic hypotension: hypotension (less than 1%), Prolonged QT interval, Syncope
- Peripheral edema: Cardiovascular: Peripheral edema (1% to less than 5%%)
- Pruritus: Dermatologic: Pruritus (0% to less than 5%)
- Serious side effect, Cardiovascular: hypotension (less than 1%), Prolonged QT interval, Syncope
- Serious side effect, Neurologic: Neurologic: Raised intracranial pressure, Seizure
- Serious side effect, Other: Other: Drug withdrawal syndrome in neonate of dependent mother,
- Serious side effect, Respiratory: Respiratory: Respiratory depression
- Somnolence: Somnolence (1% to 5%), Tremor (3%)
- Spasm: Musculoskeletal: Spasm (1% to less than 5%)
- Tremor: Somnolence (1% to 5%), Tremor (3%)
- Upper respiratory infection: Respiratory: Upper respiratory infection (1% to 3%)
- Urinary tract infectious disease: Renal: Urinary tract infectious disease (1% to 5%)
- Xerostomia: 6%), Xerostomia (1% to less than 5%)

Molecule: CN(C)CCC[C@@]1(c2ccc(F)cc2)OCc2cc(C#N)ccc21 [Escitalopram (Lexapro)]
- Abdominal pain: Gastrointestinal: Abdominal pain (2%), Constipation (3% to 6%),
- Constipation: Gastrointestinal: Abdominal pain (2%), Constipation (3% to 6%),
- Diaphoresis: Dermatologic: Diaphoresis (3% to 8%)
- Diarrhea: Diarrhea (6% to 14%), Indigestion (2% to 6%), Nausea (15% to
- Disorder of ejaculation: Reproductive: Disorder of ejaculation (9% to 14%), Erectile
- Dizziness: Neurologic: Dizziness (4% to 7%), Headache (24%), Insomnia (7%
- Erectile dysfunction: dysfunction (3%), Orgasm incapacity (females, 2% to 6%),
- Fatigue: Other: Fatigue (5% to 8%)
- Headache: Neurologic: Dizziness (4% to 7%), Headache (24%), Insomnia (7%
- Indigestion: Diarrhea (6% to 14%), Indigestion (2% to 6%), Nausea (15% to
- Insomnia: Neurologic: Dizziness (4% to 7%), Headache (24%), Insomnia (7%
- Orgasm incapacity: dysfunction (3%), Orgasm incapacity (females, 2% to 6%),
- Reduced libido: Reduced libido (3% to 7%)
- Somnolence: to 14%), Somnolence (4% to 13%)
- Vomiting: ≤ 18%), Vomiting (up to 3%), Xerostomia (4% to 9%)
- Xerostomia: 18%), Vomiting (up to 3%), Xerostomia (4% to 9%)

Molecule: Nc1ccncc1 [Ampyra]
- Abdominal pain: Gastrointestinal: Abdominal pain (7%), Nausea (7% to 13%),
- Abnormal gait: Musculoskeletal: Abnormal gait (5%), Backache (5%)
- Anxiety: Psychiatric: Anxiety (5%)
- Asthenia: Neurologic: Asthenia (7%), Dizziness (7%), Headache (7%),
- Backache: Musculoskeletal: Abnormal gait (5%), Backache (5%)
- Dizziness: Neurologic: Asthenia (7%), Dizziness (7%), Headache (7%),
- Headache: Neurologic: Asthenia (7%), Dizziness (7%), Headache (7%),
- Insomnia: Insomnia (9%)
- Nausea: Gastrointestinal: Abdominal pain (7%), Nausea (7% to 13%),
- Serious side effect, Immunologic: Immunologic: Anaphylaxis, Hypersensitivity reaction
- Serious side effect, Neurologic: Neurologic: Seizure
- Urinary tract infectious disease: Renal: Urinary tract infectious disease (12%)
- Vomiting: Vomiting (13%)

Molecule: CC(C)(C)NCC(O)COc1cccc2c1CC(O)C(O)C2 (centres unmarked) [Nadolol (Corgard)]
- Bradyarrhythmia: Cardiovascular: Bradyarrhythmia (2%)
- Cardiac dysrhythmia: Cardiovascular: Atrioventricular block, Cardiac dysrhythmia (1%),
- Dizziness: Neurologic: Dizziness (2%)
- Fatigue: Other: Fatigue (2%)
- Heart failure: Heart failure (1%)
- Serious side effects, listed without incidence or only as rare: Cardiovascular: Atrioventricular block, Cardiac dysrhythmia (1%),

Molecule: CNCCC(Oc1ccc(C(F)(F)F)cc1)c1ccccc1 (centres unmarked) [Fluoxetine (Prozac)]
- Anxiety: Psychiatric: Anxiety (3% to 15%), Feeling nervous (3% to 14%)
- Asthenia: Neurologic: Asthenia (7% to 21%), Dizziness (2% to 11%),
- Diarrhea: Gastrointestinal: Diarrhea (8% to 18%), Indigestion (6% to 10%),
- Dizziness: Neurologic: Asthenia (7% to 21%), Dizziness (2% to 11%),
- Feeling nervous: Psychiatric: Anxiety (3% to 15%), Feeling nervous (3% to 14%)
- Indigestion: Gastrointestinal: Diarrhea (8% to 18%), Indigestion (6% to 10%),
- Influenza-like symptoms: Other: Influenza-like symptoms (3% to 12%)
- Insomnia: Insomnia (9% to 33%), Somnolence (5% to 17%), Tremor (3% to
- Nausea: Loss of appetite (3.8% to 17%), Nausea (12% to 29%), Xerostomia
- Pharyngitis: Respiratory: Pharyngitis (3% to 11%), Rhinitis (16% to 23%)
- Rhinitis: Respiratory: Pharyngitis (3% to 11%), Rhinitis (16% to 23%)
- Seizure: Neurologic: Seizure (0.2%)
- Xerostomia: (4% to 12%)

Molecule: CCOC(=O)[C@H](CCc1ccccc1)N[C@@H](C)C(=O)N1Cc2cc(OC)c(OC)cc2C[C@H]1C(=O)O [Moexipril (Univasc)]
- Common side effects, listed without incidence: Other: Influenza-like symptoms
- Cough: Respiratory: Cough (6.1%)
- Diarrhea: Gastrointestinal: Diarrhea (3.1%)
- Dizziness: Neurologic: Dizziness (4.3%)

Molecule: CCOC(=O)C1=C(C)NC(C)=C(C(=O)OC)C1c1cccc(Cl)c1Cl (centres unmarked) [Felodipine (Plendil)]
- Flushing: Dermatologic: Flushing (3.9% to 6.9%)
- Headache: Neurologic: Headache (10.6% to 14.7%)
- Hypotension: Cardiovascular: Angina, Hypotension (less than 0.5%), Myocardial
- Indigestion: Gastrointestinal: Indigestion (0.5% to 3.9%)
- Peripheral edema: Cardiovascular: Peripheral edema (2% to 17.4%)
- Upper respiratory infection: Respiratory: Upper respiratory infection (0.7% to 3.9%)

Molecule: COC(=O)C(c1ccccc1)C1CCCCN1 (centres unmarked) [Methylphenidate]
- Aggressive behavior: Psychiatric: Aggressive behavior (Adult, 1.7%), Mania, Psychotic
- Decrease in appetite: appetite (Adult, 25.3%; pediatric, 2% to 9% or greater), Loss of
- Diaphoresis: Dermatologic: Diaphoresis (Adult, 5.1%)
- Dizziness: Neurologic: Dizziness (Adult, 6.7%; pediatric, 1.9%.), Headache
- Headache: (Adult, 22.2%; pediatric, up to 12%), Insomnia (Adult, 12.3%;
- Irritability: 3.9%), Irritability (Adult, 5.8%)
- Nausea: (Adult, 12.8%), Vomiting (2% or greater), Xerostomia (Adult,
- Serious side effect, Endocrine metabolic: Endocrine metabolic: Decreased body growth
- Serious side effect, Gastrointestinal: Gastrointestinal: Gastrointestinal obstruction, with preexisting
- Serious side effect, Hepatic: Hepatic: Abnormal liver function
- Serious side effect, Psychiatric: Psychiatric: Aggressive behavior (Adult, 1.7%), Mania, Psychotic
- Serious side effect, Reproductive: Reproductive: Priapism
- Tachycardia: Cardiovascular: Tachycardia (Adult, 4.8%)
- Vomiting: (Adult, 12.8%), Vomiting (2% or greater), Xerostomia (Adult,
- Weight decreased: Endocrine metabolic: Weight decreased (Adult, 6.5%)
- Xerostomia: 14%)
